Measured values published in patent US9241928B2, “Antimicrobial compounds” (The General Hospital Corporation, priority 2009, dated 2016).

What was measured:
F35E12.5::GFP = assay: Immune GFP reporter induction, transgene acIs101; format: in vivo, Caenorhabditis elegans; conditions: compound-exposed versus DMSO-exposed animals, visual
Source text: (§1) Caenorhabditis elegans strains were maintained on Escherichia coli OP50 as described in Brenner, Genetics, 1974, 77:71-94. Wildtype N2 nematodes carrying integrated transgenes acIs219 (AU78), acIs101(AY101), agIs17(AU133), or agIs26 (AU185) (see (1) Shivers, et al., PLoS. Genet. 2010, 6: e1000892, (2) Bolz et al., J. Biol. Chem. 2010, 285:10832-40, (3) Estes et al., Proc. Natl. Acad. Sci., 2010, 107:2153-8, and (4) Irazoqui et al., Proc. Natl. Acad. Sci., 2008, 105:17469-74) were used to assay the immunomodulatory activity of candidate compounds. […] Fold change was calculated using the Pfaffl method (see Pfaffl et al., Nucleic Acids Res., 2001, 29:e45).
Without wishing to be bound by theory, it was hypothesized that a subset of these compounds cured nematode infection by directly activating the innate immune response of the animal. […] First, the inventors studied four C. elegans strains in which the promoter of the nematode immune response genes T24B8.5, F35E12.5, irg-1 and clec-60 were individually fused to GFP, generating transgenes acIs219 (AU78), acIs101(AY101), agIs17(AU133), or agIs26 (AU185), respectively, thereby allowing a visual readout of gene activity in each strain. […]

F35E12.5 = assay: qRT-PCR of immune response gene expression; format: in vivo, Caenorhabditis elegans; conditions: 20 μg/mL versus DMSO
Source text: as §1, with “compounds. For qRT-PCR experiments, RNA was extracted from synchronized young adult nematodes exposed to a candidate compound or DMSO (as a control) using TRI Reagent and reverse transcribed using the Retroscript kit (Ambion). This cDNA was then subjected to qRT-PCR analysis using SYBR green detection on a CFX1000 machine (Bio-Rad, http://www.bio-rad.com). Primers for qRT-PCR were obtained from published sequences (see Irazoqui et al., Proc. Natl. Acad. Sci., 2008, 105:17469-74 and Troemel et al., PLoS Genet. 2006, 2:e183).” for “compounds.”
(§2) By using the assay described above, the inventors identified five compounds (i.e., Compounds 11, 18, 20, 25, and 26) that robustly and reproducibly activated the immune GFP reporters (see FIG. 5 and Table 3) or activated selected immune response genes as determined by quantitative RT-PCR analysis (see Table 4). For the latter experiments, RNA was isolated from wild-type C. elegans N2 or pmk-1 mutant animals exposed to the candidate immunomodulatory compounds at 20 μg/mL and from animals exposed to DMSO. The inventors tested several immune response genes in compound-exposed animals that are known to be regulated by PMK-1, the p38 Mitogen Acitvated Protein kinase homolog, an evolutionary-conserved, central regulator of nematode immunity. The inventors also used qRT-PCR to measure the activation of several immune response genes that are known to be activated independently of PMK-1. […] Thus, without wishing to be bound by theory, it is believed that a subset of the compounds identified in the screen for novel anti-infective compounds directly stimulate the immune response of the nematode and that these compounds act both by directly stimulating the PMK-1 pathway and by unidentified parallel immune response pathways.

irg-1 = assay: qRT-PCR of immune response gene expression; format: in vivo, Caenorhabditis elegans; conditions: 20 μg/mL versus DMSO
Source text: as §1, with “compounds. For qRT-PCR experiments, RNA was extracted from synchronized young adult nematodes exposed to a candidate compound or DMSO (as a control) using TRI Reagent and reverse transcribed using the Retroscript kit (Ambion). This cDNA was then subjected to qRT-PCR analysis using SYBR green detection on a CFX1000 machine (Bio-Rad, http://www.bio-rad.com). Primers for qRT-PCR were obtained from published sequences (see Irazoqui et al., Proc. Natl. Acad. Sci., 2008, 105:17469-74 and Troemel et al., PLoS Genet. 2006, 2:e183).” for “compounds.”
as §2

F56D6.2 = assay: qRT-PCR of immune response gene expression; format: in vivo, Caenorhabditis elegans; conditions: 20 μg/mL versus DMSO
Source text: as §1, with “compounds. For qRT-PCR experiments, RNA was extracted from synchronized young adult nematodes exposed to a candidate compound or DMSO (as a control) using TRI Reagent and reverse transcribed using the Retroscript kit (Ambion). This cDNA was then subjected to qRT-PCR analysis using SYBR green detection on a CFX1000 machine (Bio-Rad, http://www.bio-rad.com). Primers for qRT-PCR were obtained from published sequences (see Irazoqui et al., Proc. Natl. Acad. Sci., 2008, 105:17469-74 and Troemel et al., PLoS Genet. 2006, 2:e183).” for “compounds.”
as §2

F53E10.4 = assay: qRT-PCR of immune response gene expression; format: in vivo, Caenorhabditis elegans; conditions: 20 μg/mL versus DMSO
Source text: as §1, with “compounds. For qRT-PCR experiments, RNA was extracted from synchronized young adult nematodes exposed to a candidate compound or DMSO (as a control) using TRI Reagent and reverse transcribed using the Retroscript kit (Ambion). This cDNA was then subjected to qRT-PCR analysis using SYBR green detection on a CFX1000 machine (Bio-Rad, http://www.bio-rad.com). Primers for qRT-PCR were obtained from published sequences (see Irazoqui et al., Proc. Natl. Acad. Sci., 2008, 105:17469-74 and Troemel et al., PLoS Genet. 2006, 2:e183).” for “compounds.”
as §2

T24B8.5 = assay: qRT-PCR of immune response gene expression; format: in vivo, Caenorhabditis elegans; conditions: 20 μg/mL versus DMSO
Source text: as §1, with “compounds. For qRT-PCR experiments, RNA was extracted from synchronized young adult nematodes exposed to a candidate compound or DMSO (as a control) using TRI Reagent and reverse transcribed using the Retroscript kit (Ambion). This cDNA was then subjected to qRT-PCR analysis using SYBR green detection on a CFX1000 machine (Bio-Rad, http://www.bio-rad.com). Primers for qRT-PCR were obtained from published sequences (see Irazoqui et al., Proc. Natl. Acad. Sci., 2008, 105:17469-74 and Troemel et al., PLoS Genet. 2006, 2:e183).” for “compounds.”
as §2

C17H12.8 = assay: qRT-PCR of immune response gene expression; format: in vivo, Caenorhabditis elegans; conditions: 20 μg/mL versus DMSO
Source text: as §1, with “compounds. For qRT-PCR experiments, RNA was extracted from synchronized young adult nematodes exposed to a candidate compound or DMSO (as a control) using TRI Reagent and reverse transcribed using the Retroscript kit (Ambion). This cDNA was then subjected to qRT-PCR analysis using SYBR green detection on a CFX1000 machine (Bio-Rad, http://www.bio-rad.com). Primers for qRT-PCR were obtained from published sequences (see Irazoqui et al., Proc. Natl. Acad. Sci., 2008, 105:17469-74 and Troemel et al., PLoS Genet. 2006, 2:e183).” for “compounds.”
as §2

C49G7.5 = assay: qRT-PCR of immune response gene expression; format: in vivo, Caenorhabditis elegans; conditions: 20 μg/mL versus DMSO
Source text: as §1, with “compounds. For qRT-PCR experiments, RNA was extracted from synchronized young adult nematodes exposed to a candidate compound or DMSO (as a control) using TRI Reagent and reverse transcribed using the Retroscript kit (Ambion). This cDNA was then subjected to qRT-PCR analysis using SYBR green detection on a CFX1000 machine (Bio-Rad, http://www.bio-rad.com). Primers for qRT-PCR were obtained from published sequences (see Irazoqui et al., Proc. Natl. Acad. Sci., 2008, 105:17469-74 and Troemel et al., PLoS Genet. 2006, 2:e183).” for “compounds.”
as §2

immune response genes = assay: qRT-PCR of immune response genes, PMK-1 dependence (overall); format: in vivo, Caenorhabditis elegans; conditions: 20 μg/mL, N2 or pmk-1 mutant animals
Source text: as §1, with “compounds. For qRT-PCR experiments, RNA was extracted from synchronized young adult nematodes exposed to a candidate compound or DMSO (as a control) using TRI Reagent and reverse transcribed using the Retroscript kit (Ambion). This cDNA was then subjected to qRT-PCR analysis using SYBR green detection on a CFX1000 machine (Bio-Rad, http://www.bio-rad.com). Primers for qRT-PCR were obtained from published sequences (see Irazoqui et al., Proc. Natl. Acad. Sci., 2008, 105:17469-74 and Troemel et al., PLoS Genet. 2006, 2:e183).” for “compounds.”
By using the assay described above, the inventors identified five compounds (i.e., Compounds 11, 18, 20, 25, and 26) that robustly and reproducibly activated the immune GFP reporters (see FIG. 5 and Table 3) or activated selected immune response genes as determined by quantitative RT-PCR analysis (see Table 4). For the latter experiments, RNA was isolated from wild-type C. elegans N2 or pmk-1 mutant animals exposed to the candidate immunomodulatory compounds at 20 μg/mL and from animals exposed to DMSO. The inventors tested several immune response genes in compound-exposed animals that are known to be regulated by PMK-1, the p38 Mitogen Acitvated Protein kinase homolog, an evolutionary-conserved, central regulator of nematode immunity. The inventors also used qRT-PCR to measure the activation of several immune response genes that are known to be activated independently of PMK-1. […]

PA14 = assay: Growth of PA14 in presence of compound (data not shown); format: cell-based, Pseudomonas aeruginosa; conditions: 3.125 μg/mL
T24B8.5::GFP = assay: Immune GFP reporter induction, transgene acIs219; format: in vivo, Caenorhabditis elegans; conditions: compound-exposed versus DMSO-exposed animals, visual
Source text: as §1, with “compounds. For qRT-PCR experiments, RNA was extracted from synchronized young adult nematodes exposed to a candidate compound or DMSO (as a control) using TRI Reagent and reverse transcribed using the Retroscript kit (Ambion). This cDNA was then subjected to qRT-PCR analysis using SYBR green detection on a CFX1000 machine (Bio-Rad, http://www.bio-rad.com). Primers for qRT-PCR were obtained from published sequences (see Irazoqui et al., Proc. Natl. Acad. Sci., 2008, 105:17469-74 and Troemel et al., PLoS Genet. 2006, 2:e183).” for “compounds.”
Without wishing to be bound by theory, it was hypothesized that a subset of these compounds cured nematode infection by directly activating the innate immune response of the animal. To test this hypothesis, a multi-faceted approach was used. First, the inventors studied four C. elegans strains in which the promoter of the nematode immune response genes T24B8.5, F35E12.5, irg-1 and clec-60 were individually fused to GFP, generating transgenes acIs219 (AU78), acIs101(AY101), agIs17(AU133), or agIs26 (AU185), respectively, thereby allowing a visual readout of gene activity in each strain. Using these reporter strains, the ability of 33 compounds previously shown to have anti-Enterococcal killing activity in the C. elegans infection assay (24 of which have been described above) were tested for their ability to modulate the nematode immune response.

NNc1ccc2c(Cl)cc(Cl)c(O)c2n1 [Compound 11]
immune reporter induction F35E12.5::GFP (F35E12.5::GFP): + | F35E12.5 expression, average fold-change (F35E12.5; genotype N2): 20.23 fold-change | F35E12.5 expression, average fold-change (F35E12.5; genotype pmk-1(km25)): 6.7 fold-change | irg-1 expression, average fold-change (irg-1; genotype N2): 1.7 fold-change | irg-1 expression, average fold-change (irg-1; genotype pmk-1(km25)): 4.7 fold-change | F56D6.2 expression, average fold-change (F56D6.2; genotype N2): 15.1 fold-change | F56D6.2 expression, average fold-change (F56D6.2; genotype pmk-1(km25)): 1.4 fold-change | F53E10.4 expression, average fold-change (F53E10.4; genotype N2): 1.0 fold-change | F53E10.4 expression, average fold-change (F53E10.4; genotype pmk-1(km25)): 1.7 fold-change | T24B8.5 expression, average fold-change (T24B8.5; genotype N2): 57.0 fold-change | T24B8.5 expression, average fold-change (T24B8.5; genotype pmk-1(km25)): 3.2 fold-change | C17H12.8 expression, average fold-change (C17H12.8; genotype N2): 18.0 fold-change | C17H12.8 expression, average fold-change (C17H12.8; genotype pmk-1(km25)): 1.1 fold-change | C49G7.5 expression, average fold-change (C49G7.5; genotype N2): 0.9 fold-change | C49G7.5 expression, average fold-change (C49G7.5; genotype pmk-1(km25)): 2.5 fold-change | PMK-1 dependence of immune response gene activation (immune response genes): preferentially activated PMK-1-dependent immune response genes | effect on PA14 (growth) (PA14): unaffected | immune reporter induction T24B8.5::GFP (T24B8.5::GFP): +

Cc1ccc(Nc2nc(N)c3ccccc3n2)cc1Cl [Compound 26]
immune reporter induction F35E12.5::GFP (F35E12.5::GFP): + | F35E12.5 expression, average fold-change (F35E12.5; genotype N2): 156.1 fold-change | F35E12.5 expression, average fold-change (F35E12.5; genotype pmk-1(km25)): 149.0 fold-change | irg-1 expression, average fold-change (irg-1; genotype N2): 1.1 fold-change | irg-1 expression, average fold-change (irg-1; genotype pmk-1(km25)): 4.0 fold-change | F56D6.2 expression, average fold-change (F56D6.2; genotype N2): 13.1 fold-change | F56D6.2 expression, average fold-change (F56D6.2; genotype pmk-1(km25)): 0.6 fold-change | F53E10.4 expression, average fold-change (F53E10.4; genotype N2): 0.3 fold-change | F53E10.4 expression, average fold-change (F53E10.4; genotype pmk-1(km25)): 0.8 fold-change | T24B8.5 expression, average fold-change (T24B8.5; genotype N2): 1.6 fold-change | T24B8.5 expression, average fold-change (T24B8.5; genotype pmk-1(km25)): 1.8 fold-change | C17H12.8 expression, average fold-change (C17H12.8; genotype N2): 1.1 fold-change | C17H12.8 expression, average fold-change (C17H12.8; genotype pmk-1(km25)): 0.4 fold-change | C49G7.5 expression, average fold-change (C49G7.5; genotype N2): 1.8 fold-change | C49G7.5 expression, average fold-change (C49G7.5; genotype pmk-1(km25)): 6.3 fold-change | PMK-1 dependence of immune response gene activation (immune response genes): activated at least one immune response gene in the nematode in a manner independent of PMK-1 | immune reporter induction T24B8.5::GFP (T24B8.5::GFP): +
